The source of these data is patent US20050245577A1, “Drug for kidney failure containing oxaluric acid derivative” (priority 2002, published 2005).

The data set has as its system SD-strain rats. The experiment in a line: Single dose toxicity test. The class given is in vivo. The following applies: intravenous single dose 75 to 600 mg/kg, even at 600 mg/kg, 5 males and 5 females. On the procedure:
5-Methyloxaluric acid was intravenously administered to SD-strain rats (6 weeks age, 5 males and 5 females) at the dose of 75 to 600 mg/kg.

Regarding `CNC(=O)NC(=O)C(=O)O` [5-Methyloxaluric acid, 5-methyloxaluric acid], the death entry is reported as “no death”.
